Measured values reported in US20260000656A1, “ANTIFUNGAL AGENTS WITH ENHANCED ACTIVITY IN ACIDIC PH” (Scynexis, Inc., priority 2017, published 2026).
Read-outs that look alike come from different tables or passages of the source.

Legend:
[1] = tested on: vulvovaginal candidiasis (Candida spp.); format: in vivo, human; conditions: for rate of mycological eradication: SCY-078 combined arms / fluconazole arm; for Therapeutic cure (clinical cure and mycological eradication) / mycological eradication / clinical cure: ITT population; for Therapeutic cure (clinical cure and mycological eradication): Day 24 Test-of-Cure visit; for Therapeutic cure (clinical cure and mycological eradication) / mycological eradication: combined SCY-078 arms (n = 64) / fluconazole 150 mg (n = 32); for mycological eradication / clinical cure: Test-of-Cure visit (Day 24); for clinical cure: combined SCY-078 arms (n = 64, 1250 mg then 750 mg QD for 2 or 4 days) / fluconazole 150 mg single dose (n = 32)
Experimental: As a first step of the feasibility evaluation, a proof-of-concept exploratory trial in 96 patients with moderate to severe acute VVC was conducted. Subjects received SCY-078 tablets orally, administered at a dose of 1250 mg on day 1, followed by 750 mg once a day for 2 or 4 days. A comparator group of patients receiving oral fluconazole at the approved dose (150 mg, single dose) was also included.
This study was a proof-of-concept study conducted to evaluate the safety and efficacy of two dosing regimens of oral SCY-078 (administered as the phosphate salt) in subjects presenting with moderate to severe VVC.
Key criteria for inclusion included: • 1. Subjects with moderate to severe VVC, confirmed by positive potassium hydroxide (KOH) test from a vaginal secretion sample • 2. Three vaginitis episodes in the past year that were either confirmed to be caused by Candida spp. or that responded to antifungal therapy
Subjects were randomized in a 1:1:1 ratio to one of the three treatment arms: Oral SCY-078 loading dose of 1250 mg SCY-078, followed by 750 mg SCY-078 QD for 2 days or for 4 days, or Oral Fluconazole 150 mg for 1 day.
Subjects were evaluated on Day 24 (Test-of-Cure visit), Day 60, Day 90, and 120 days (end of study).
The analyses included clinical cure (all signs and symptoms present at baseline improved by at least two points (e.g., from moderate to absent or from severe to mild); after the study started, the FDA proposed that clinical cure is achieved if all signs and symptoms present at baseline are absent), mycological eradication (a negative culture for the baseline yeast pathogen), and therapeutic cure (both clinical cure and mycological eradication). Clinical cure has been proposed by the FDA as the primary endpoint for assessment of efficacy in VVC.
Ninety-six subjects were enrolled (intent-to-treat (ITT) population), and 70 subjects had cultured-confirmed Candida spp. infection (per protocol (PP) population).

clinical = format: in vivo, human; conditions: female, human, in vivo, po, 300 mg
Experimental: (§1) A Phase 2 study was conducted to evaluate the safety, efficacy, tolerability, and pharmacokinetics of five dose regimens of oral SCY-078 (administered as the citrate salt) compared to oral fluconazole in adult, female patients with moderate-to-severe acute VVC (defined as having a signs and symptoms (S&S) score of 7 or greater). A total of 186 intent-to-treat (ITT) patients were randomized into six different treatment arms as follows: five different dosing regimens of oral SCY-078 and one oral fluconazole treatment arm. The modified intent-to-treat (mITT) population was used for efficacy analysis and included 153 patients with culture-confirmed Candida spp. vaginal infection (positive microscopic examination of vaginal secretions showing yeast, vaginal pH≤4.5) at baseline. The doses of SCY-078 tested ranged from 600 mg to 1800 mg total dose administered over the duration of treatment, and the durations of treatment were 1 or 3 days:
(§2) The primary efficacy endpoint was clinical cure, which according to current FDA guidance is defined as complete resolution (score=0) of all signs and symptoms at the Day 10 Test-of-Cure visit without the need of additional antifungal therapy. Secondary endpoints included mycological eradication (negative culture) and a composite endpoint including both clinical cure and mycological eradication. Response was also evaluated based on the percent of patients achieving a noticeable improvement in their signs and symptoms, either by achieving an S&S score of 0 or 1 or an absolute change (reduction) in mean composite S&S score from baseline. An S&S score is based on a patient's reported symptoms (burning, itching, and irritation) and investigator-assessed signs (swelling, redness, and excoriations); each sign and symptom can be absent, mild, moderate, or severe, with a corresponding score from 0 to 3; the total composite scale is 0 to 18 points. Response was further evaluated by assessing the number of patients who received rescue antifungal therapy. Patients were assessed at the Day 10 Test-of-Cure visit and also at a Day 25 Follow-Up visit. The study was not designed to achieve statistically significant differences in any of the evaluated endpoints.

[2] = tested on: acute VVC (Candida spp. vaginal infection); assay: clinical; format: in vivo, human; conditions: for mycological eradication / percentage of patients showing an S&S score of 0 or 1 / mean S&S score / percentage of patients with 0-or-1 S&S score / percentage of patients with clinical cure: SCY-078 600 mg dose arm / fluconazole arm; for mean S&S score: scale 0 to 18; for clinical cure / clinical cure, number of patients: Day 10 Test-of-Cure, mITT, SCY-078 600 mg (300 mg BID 1 day, n=27) / fluconazole 150 mg (n=24); for percentage of patients with 0-or-1 S&S score / percentage of patients with clinical cure: Day 25 Follow-Up visit; for patients who received rescue antifungal medication: through Day 25 Follow-Up, SCY-078 600 mg (n=27) / fluconazole (n=24)
Experimental: as §1, §2

VVC = conditions: oral fluconazole, share of VVC cases, Diflucan label (May 2011); cited from earlier work
[3] = Day 24, per protocol population
[4] = Day 24, per protocol population, SCY-078 3-Days arm (n = 24)
[5] = Day 24, per protocol population, SCY-078 5-Days arm (n = 26)
[6] = Day 24, per protocol population, SCY-078 Combined (n = 50) / Fluconazole (n = 20)
[7] = Month 4, SCY-078 3-Days arm (n = 24)
[8] = Month 4, SCY-078 5-Days arm (n = 26)
[9] = Month 4, SCY-078 Combined (n = 50) / Fluconazole (n = 20)

| Structure (SMILES) | Clinical Cure (Updated FDA Definition), rate [1, 6] [%] | Clinical Cure, rate [1, 6] [%] | rate of mycological eradication ([1]; Day 24) [%] | Therapeutic cure (clinical cure and mycological eradication) [1] [%] | mycological eradication [1] [%] | clinical cure [1] [%] | Clinical Cure, rate [1, 9] [%] | Recurrences Requiring Antifungal Therapy, rate [1, 9] [%] | “0” Signs and Symptoms, rate [1, 9] [%] | rate of mycological eradication ([1]; Month 4) [%] | mycological eradication ([2]; Day 10, mITT) [%] | percentage of patients showing an S&S score of 0 or 1 ([2]; Day 10, mITT) [%] | mean S&S score ([2]; Day 10, mITT) | clinical cure [2] [%] | clinical cure, number of patients [2] | mycological eradication ([2]; Day 25) [%] | mean S&S score ([2]; Day 25) | percentage of patients with 0-or-1 S&S score [2] [%] | percentage of patients with clinical cure [2] [%] | patients who received rescue antifungal medication [2] [%] | further results |
| --- | --- | --- | --- | --- | --- | --- | --- | --- | --- | --- | --- | --- | --- | --- | --- | --- | --- | --- | --- | --- | --- |
| CC(C)[C@@H](C)[C@@]1(C)CC[C@]2(C)[C@H]3CC[C@@H]4[C@@]5(COC[C@]4(C)[C@@H](OC[C@](C)(N)C(C)(C)C)[C@H](n4ncnc4-c4ccncc4)C5)C3=CC[C@@]2(C)[C@@H]1C(=O)O [SCY-078] | 70 | 76 | 70 | 56.3 | 70.3 | 78.1 | 88 | 4 | 80 | 74 | 63 | 70 | 1.0 | 52 | 14 | 48 | 0.4 | 81 | 70 | 4 | % Δ SCY-078 (combined) vs. Fluconazole, Clinical Cure [1, 3]: 11%; % Δ SCY-078 (combined) vs. Fluconazole, Clinical Cure (Updated FDA Definition) [1, 3]: 15%; Clinical Cure (Updated FDA Definition), rate [1, 4]: 70.8%; Clinical Cure, rate [1, 4]: 79.2%; Clinical Cure (Updated FDA Definition), rate [1, 5]: 69.2%; Clinical Cure, rate [1, 5]: 73.1%; % Δ SCY-078 (combined) vs. Fluconazole, Clinical Cure ([1]; Month 4): 23%; % Δ SCY-078 (combined) vs. Fluconazole, Recurrences Requiring Antifungal Therapy ([1]; Month 4): −11%; % Δ SCY-078 (combined) vs. Fluconazole, “0” Signs and Symptoms ([1]; Month 4): 15%; Clinical Cure, rate [1, 7]: 87.5%; Recurrences Requiring Antifungal Therapy, rate [1, 7]: 4.2%; “0” Signs and Symptoms, rate [1, 7]: 79.1%; Clinical Cure, rate [1, 8]: 88.46%; Recurrences Requiring Antifungal Therapy, rate [1, 8]: 3.8%; “0” Signs and Symptoms, rate [1, 8]: 80.7%; GI adverse events (e.g., nausea, diarrhea) ([1]; in vivo): higher rate of GI adverse events; AUC(0-t) (clinical): 3 to 8 µM·h; Cmax (clinical): 200 to 500 nM |
| OC(Cn1cncn1)(Cn1cncn1)c1ccc(F)cc1F [Fluconazole, reference compound] | 55 | 65 | 65 | 56.3 | 68.8 | 65.6 | 65 | 15 | 65 | 60 | 63 | 71 | 1.8 | 58 | 14 | 38 | 2.6 | 58 | 50 | 29 | Therapeutic cure (clinical cure and mycological eradication) ([1]; listed as fluconazole): 56.3%; therapeutic cure (complete resolution of signs and symptoms, negative KOH examination and negative culture) (VVC): approximately half |
